Measured values from ChEMBL document CHEMBL1156204, “Spectacular modification of Gambogic acid on microwave irradiation in methanol: isolation and structure identification of two products with potent anti-tumor activity” (Bioorg Med Chem Lett, 2010).
Active and inactive are the calls of the source. No cut-off for these calls is given here.

Columns and labels:
[1] = test system: MCF7; assay: Cytotoxicity against human MCF7 cells after 48 hrs by MTT assay; assay type: functional, cell-based; settings: MCF7, 48 h
[2] = test system: HepG2; assay: Cytotoxicity against human HepG2 cells after 48 hrs by MTT assay; assay type: functional, cell-based; settings: HepG2, 48 h
[3] = Cytotoxicity against human BGC803 cells after 48 hrs by MTT assay; assay type: functional, cell-based; settings: BGC803, 48 h
[4] = test system: SGC-7901; assay: Cytotoxicity against human SGC7901 cells after 48 hrs by MTT assay; assay type: functional, cell-based; settings: SGC-7901, 48 h
[5] = test system: HepG2; assay: Effect on human HepG2 cell morphology assessed as induction of membrane blebbing at 0.5 to 2 uM after 24 hrs by inverted-light microscopy; assay type: functional, cell-based
[6] = test system: HepG2; assay: Induction of apoptosis in human HepG2 cells assessed as viable cells at 0.5 uM after 24 hrs using annexin-V and propidium iodide staining by flow cytometry; assay type: functional; settings: HepG2, 24 h, read-out: Activity
[7] = test system: HepG2; assay: Induction of apoptosis in human HepG2 cells assessed as viable cells at 2 uM after 24 hrs using annexin-V and propidium iodide staining by flow cytometry; assay type: functional; settings: HepG2, 24 h, read-out: Activity
[8] = test system: HepG2; assay: Effect on human HepG2 cell morphology assessed as induction of cell shrinkage at 1.25 to 5 uM after 24 hrs by inverted-light microscopy; assay type: functional, cell-based
[9] = test system: HepG2; assay: Induction of apoptosis in human HepG2 cells assessed as early apoptotic cells at 0.5 uM after 24 hrs using annexin-V and propidium iodide staining by flow cytometry; assay type: functional
[10] = test system: HepG2; assay: Induction of apoptosis in human HepG2 cells assessed as late apoptotic cells at 1 uM after 24 hrs using annexin-V and propidium iodide staining by flow cytometry; assay type: functional
[11] = test system: HepG2; assay: Induction of apoptosis in human HepG2 cells assessed as dead cells at 1 uM after 24 hrs using annexin-V and propidium iodide staining by flow cytometry; assay type: functional
[12] = test system: HepG2; assay: Induction of necrosis in human HepG2 cells at 0.5 to 2 uM after 24 hrs by inverted-light microscopy; assay type: functional, cell-based
[13] = test system: HepG2; assay: Induction of apoptosis in human HepG2 cells assessed as late apoptotic cells at 0.5 uM after 24 hrs using annexin-V and propidium iodide staining by flow cytometry; assay type: functional
[14] = test system: HepG2; assay: Induction of apoptosis in human HepG2 cells assessed as dead cells at 0.5 uM after 24 hrs using annexin-V and propidium iodide staining by flow cytometry; assay type: functional
[15] = test system: HepG2; assay: Induction of apoptosis in human HepG2 cells assessed as viable cells at 1 uM after 24 hrs using annexin-V and propidium iodide staining by flow cytometry; assay type: functional; settings: HepG2, 24 h, read-out: Activity
[16] = test system: HepG2; assay: Induction of apoptosis in human HepG2 cells assessed as appearance of apoptotic bodies at 1.25 to 5 uM after 24 hrs by fluorescence microscopy; assay type: functional, cell-based
[17] = test system: HepG2; assay: Induction of apoptosis in human HepG2 cells assessed as increase in active caspase-3 expression at 0.5 to 2 uM after 24 hrs; assay type: functional, cell-based
[18] = test system: HepG2; assay: Effect on human HepG2 cell morphology assessed as cell elongation at 0.5 to 2 uM after 24 hrs by inverted-light microscopy; assay type: functional, cell-based
[19] = test system: HepG2; assay: Effect on human HepG2 cell morphology assessed as formation of round cells at 0.5 to 2 uM after 24 hrs by inverted-light microscopy; assay type: functional, cell-based
[20] = test system: HepG2; assay: Effect on human HepG2 cell morphology assessed as formation of round cells at 1.25 to 5 uM after 24 hrs by inverted-light microscopy; assay type: functional, cell-based
[21] = test system: HepG2; assay: Induction of apoptosis in human HepG2 cells assessed as nuclear condensation at 0.5 to 2 uM after 24 hrs by DAPI staining-based fluorescence microscopy; assay type: functional, cell-based
[22] = test system: HepG2; assay: Induction of apoptosis in human HepG2 cells assessed as nuclear condensation at 1.25 to 5 uM after 24 hrs by DAPI staining-based fluorescence microscopy; assay type: functional, cell-based
[23] = test system: HepG2; assay: Induction of apoptosis in human HepG2 cells assessed as dead cells at 2 uM after 24 hrs using annexin-V and propidium iodide staining by flow cytometry; assay type: functional
[24] = test system: HepG2; assay: Induction of apoptosis in human HepG2 cells assessed as early apoptotic cells at 1 uM after 24 hrs using annexin-V and propidium iodide staining by flow cytometry; assay type: functional
[25] = test system: HepG2; assay: Induction of apoptosis in human HepG2 cells assessed as appearance of apoptotic bodies at 0.5 to 2 uM after 24 hrs by fluorescence microscopy; assay type: functional, cell-based
[26] = test system: HepG2; assay: Induction of necrosis in human HepG2 cells at 1.25 to 5 uM after 24 hrs by inverted-light microscopy; assay type: functional, cell-based
[27] = test system: HepG2; assay: Effect on human HepG2 cell morphology assessed as cell elongation at 1.25 to 5 uM after 24 hrs by inverted-light microscopy; assay type: functional, cell-based
[28] = test system: HepG2; assay: Induction of apoptosis in human HepG2 cells assessed as early apoptotic cells at 2 uM after 24 hrs using annexin-V and propidium iodide staining by flow cytometry; assay type: functional
[29] = test system: HepG2; assay: Induction of apoptosis in human HepG2 cells assessed as late apoptotic cells at 2 uM after 24 hrs using annexin-V and propidium iodide staining by flow cytometry; assay type: functional
[30] = test system: HepG2; assay: Induction of apoptosis in human HepG2 cells assessed as increase in bax expression at 0.5 to 2 uM after 24 hrs; assay type: functional, cell-based
[31] = test system: HepG2; assay: Effect on human HepG2 cell morphology assessed as induction of membrane blebbing at 1.25 to 5 uM after 24 hrs by inverted-light microscopy; assay type: functional, cell-based
[32] = test system: HepG2; assay: Induction of apoptosis in human HepG2 cells assessed as decrease in procaspase-3 expression at 0.5 to 2 uM after 24 hrs; assay type: functional, cell-based
[33] = test system: HepG2; assay: Effect on human HepG2 cell morphology assessed as induction of cell shrinkage at 0.5 to 2 uM after 24 hrs by inverted-light microscopy; assay type: functional, cell-based
[34] = test system: HepG2; assay: Induction of apoptosis in human HepG2 cells assessed as dead cells at 1.25 uM after 24 hrs using annexin-V and propidium iodide staining by flow cytometry; assay type: functional
[35] = test system: HepG2; assay: Induction of apoptosis in human HepG2 cells assessed as early apoptotic cells at 2.5 uM after 24 hrs using annexin-V and propidium iodide staining by flow cytometry; assay type: functional
[36] = test system: HepG2; assay: Induction of apoptosis in human HepG2 cells assessed as late apoptotic cells at 2.5 uM after 24 hrs using annexin-V and propidium iodide staining by flow cytometry; assay type: functional
[37] = test system: HepG2; assay: Induction of apoptosis in human HepG2 cells assessed as decrease in procaspase-3 expression at 1.25 to 5 uM after 24 hrs; assay type: functional, cell-based
[38] = test system: HepG2; assay: Induction of apoptosis in human HepG2 cells assessed as dead cells at 2.5 uM after 24 hrs using annexin-V and propidium iodide staining by flow cytometry; assay type: functional
[39] = test system: HepG2; assay: Induction of apoptosis in human HepG2 cells assessed as viable cells at 2.5 uM after 24 hrs using annexin-V and propidium iodide staining by flow cytometry; assay type: functional; settings: HepG2, 24 h, read-out: Activity
[40] = test system: HepG2; assay: Induction of apoptosis in human HepG2 cells assessed as dead cells at 5 uM after 24 hrs using annexin-V and propidium iodide staining by flow cytometry; assay type: functional
[41] = test system: HepG2; assay: Induction of apoptosis in human HepG2 cells assessed as early apoptotic cells at 5 uM after 24 hrs using annexin-V and propidium iodide staining by flow cytometry; assay type: functional
[42] = test system: HepG2; assay: Induction of apoptosis in human HepG2 cells assessed as viable cells at 5 uM after 24 hrs using annexin-V and propidium iodide staining by flow cytometry; assay type: functional; settings: HepG2, 24 h, read-out: Activity
[43] = test system: HepG2; assay: Induction of apoptosis in human HepG2 cells assessed as viable cells at 1.25 uM after 24 hrs using annexin-V and propidium iodide staining by flow cytometry; assay type: functional; settings: HepG2, 24 h, read-out: Activity
[44] = test system: HepG2; assay: Induction of apoptosis in human HepG2 cells assessed as early apoptotic cells at 1.25 uM after 24 hrs using annexin-V and propidium iodide staining by flow cytometry; assay type: functional
[45] = test system: HepG2; assay: Induction of apoptosis in human HepG2 cells assessed as late apoptotic cells at 1.25 uM after 24 hrs using annexin-V and propidium iodide staining by flow cytometry; assay type: functional
[46] = test system: HepG2; assay: Induction of apoptosis in human HepG2 cells assessed as late apoptotic cells at 5 uM after 24 hrs using annexin-V and propidium iodide staining by flow cytometry; assay type: functional
[47] = test system: HepG2; assay: Induction of apoptosis in human HepG2 cells assessed as decrease in Bcl-2 expression at 1.25 to 5 uM after 24 hrs; assay type: functional, cell-based

SMILES | IC50 [1] [µM] | IC50 [2] [µM] | IC50 [3] [µM] | IC50 [4] [µM] | Activity [5] | Activity [8] | Activity [12] | Activity [16] | Activity [18] | Activity [19] | Activity [20] | Activity [21] | Activity [22] | Activity [25] | Activity [26] | Activity [27] | Activity [31] | Activity [33] | other results
CC(C)=CCC[C@]1(C)C=Cc2c(O)c3c(c(CC=C(C)C)c2O1)O[C@]12C(=C[C@@H]4C[C@H]1C(C)(C)O[C@@]2(C/C=C(/C)C(=O)O)C4=O)C3=O [GAMBOGIC ACID] | 0.5 | 2.4 | 1.54 | 1.47 | – | – | – | – | – | – | – | – | – | – | – | – | – | – | –
COC(=O)/C(C)=C\C[C@@]12OC(C)(C)[C@@H]3C[C@@H](C=C4C(=O)c5c(O)c6c(c(CC=C(C)C)c5O[C@]431)O[C@](C)(CCC=C(C)C)C=C6)C2=O [METHYL GAMBOGATE] | 0.52 | 2.53 | 1.24 | 0.79 | – | – | – | – | – | – | – | – | – | – | – | – | – | – | –
COC(=O)/C(C)=C\C[C@@]12OC(C)(C)[C@@H]3C[C@@H](C=C4C(=O)c5c(O)c(C6C[C@](C)(OC)CCC6=C(C)C)c6c(c5O[C@]431)CCC(C)(C)O6)C2=O (stereo partly drawn) | 1.24 | 1.53 | 2.01 | 1.51 | Active | Active | Active | Active | Active | Active | Active | Active | Active | Active | Active | Active | Active | Active | viability at 0.5 µM [6]: 94%; viability at 2 µM [7]: 53.6%; Activity [9]: 4.3%; Activity [10]: 2.5%; Activity [11]: 0.9%; Activity [13]: 1.3%; Activity [14]: 0.3%; viability at 1 µM [15]: 83.7%; Activity [17]: Active; Activity [23]: 3.4%; Activity [24]: 12.9%; Activity [28]: 35%; Activity [29]: 8.1%; Activity [30]: Active; Activity [32]: Active
COC(=O)/C(C)=C\C[C@@]12OC(C)(C)[C@@H]3C[C@@H](C=C4C(=O)c5c(O)c6c(c(CC=C(C)C)c5O[C@]431)O[C@]1(C)CCC(=C(C)C)C6C1)C2=O | 1.88 | 1.96 | 1.45 | 2.15 | Active | Active | Active | Active | Active | Active | Active | Active | Active | Active | Active | Active | Active | Active | Activity [34]: 0.4%; Activity [35]: 13.6%; Activity [36]: 4.1%; Activity [37]: Active; Activity [38]: 1.4%; viability at 2.5 µM [39]: 80.9%; Activity [40]: 1.8%; Activity [41]: 20.7%; viability at 5 µM [42]: 73.2%; viability at 1.25 µM [43]: 89.8%; Activity [44]: 5.7%; Activity [45]: 4%; Activity [46]: 4.4%; Activity [47]: Active
